Source: PubChem BioAssay AID2060891 (Molecular Pharmacology Branch, DTP, NCI, 2025)
pIC50: −log10 of the molar value.

Tested on: K98450-129-R-PDC complex spheroid growth, percent test/control
Experiment: Anticancer human tumor K98450-129-R-PDC patient-derived colon adenocarcinoma cell line growth inhibition [RAS]
Conditions: for pIC50: curve of first compound; for viability, T/C: stronger effect = lower value; active = viability on the fitted dose curve at most 10% of control; inactive = the rest
Summary of the method: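 Tumour cells grown as complex spheroids with HUVEC endothelial cells and mesenchymal stem cells, treated with RAS pathway inhibitor combinations. Each agent spans half-log steps from near clinical Cmax, or 10 microM where Cmax is unknown.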
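Note: spheroids exposed to agents for seven days before the viability readout.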
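Throughout, for viability, T/C: luminescence used as a proxy for viable cell amount.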

CC(=O)OC12COC1CC(O)C1(C)C(=O)C(O)C3=C(C)C(OC(=O)C(O)C(NC(=O)OC(C)(C)C)c4ccccc4)CC(O)(C(OC(=O)c4ccccc4)C21)C3(C)C (centres undefined) + C#Cc1c(F)ccc2cc(O)cc(-c3ncc4c(N5CC6CCC(C5)N6)nc(OCC56CCCN5CC(F)C6)nc4c3F)c12
6.34: pIC50 (second compound 3.16 µM)
6.40: pIC50 (second compound 10 µM)
6.37: pIC50 (second compound 0.1 µM)
6.32: pIC50 (second compound 0.316 µM)
inactive: viability, T/C (second compound 0.0316 µM, first compound 0.0316 µM) 105% | viability, T/C (second compound 0.0316 µM, first compound 0.1 µM) 98% | viability, T/C (second compound 0.0316 µM, first compound 0.316 µM) 54.7% | viability, T/C (second compound 0.0316 µM, first compound 1 µM) 34.7% | viability, T/C (second compound 0.0316 µM, first compound 3.16 µM) 33.1% | viability, T/C (second compound 0.0316 µM, first compound 10 µM) 35.2% | viability, T/C (second compound 0.1 µM, first compound 0.0316 µM) 109% | viability, T/C (second compound 0.1 µM, first compound 0.1 µM) 103% | viability, T/C (second compound 0.1 µM, first compound 0.316 µM) 54.7% | viability, T/C (second compound 0.1 µM, first compound 1 µM) 38% | viability, T/C (second compound 0.1 µM, first compound 3.16 µM) 32.8% | viability, T/C (second compound 0.1 µM, first compound 10 µM) 34.8% | viability, T/C (second compound 0.316 µM, first compound 0.0316 µM) 105% | viability, T/C (second compound 0.316 µM, first compound 0.1 µM) 103% | viability, T/C (second compound 0.316 µM, first compound 0.316 µM) 59% | viability, T/C (second compound 0.316 µM, first compound 1 µM) 35.5% | viability, T/C (second compound 0.316 µM, first compound 3.16 µM) 32.4% | viability, T/C (second compound 0.316 µM, first compound 10 µM) 33.4% | viability, T/C (second compound 1 µM, first compound 0.0316 µM) 101% | viability, T/C (second compound 1 µM, first compound 0.1 µM) 101% | viability, T/C (second compound 1 µM, first compound 0.316 µM) 57.9% | viability, T/C (second compound 1 µM, first compound 1 µM) 36.6% | viability, T/C (second compound 1 µM, first compound 3.16 µM) 32.6% | viability, T/C (second compound 1 µM, first compound 10 µM) 32.1% | viability, T/C (second compound 3.16 µM, first compound 0.0316 µM) 93.2% | viability, T/C (second compound 3.16 µM, first compound 0.1 µM) 97.1% | viability, T/C (second compound 3.16 µM, first compound 0.316 µM) 57.9% | viability, T/C (second compound 3.16 µM, first compound 1 µM) 35% | viability, T/C (second compound 3.16 µM, first compound 3.16 µM) 34.2% | viability, T/C (second compound 3.16 µM, first compound 10 µM) 31.9% | viability, T/C (second compound 10 µM, first compound 0.0316 µM) 86.1% | viability, T/C (second compound 10 µM, first compound 0.1 µM) 87.8% | viability, T/C (second compound 10 µM, first compound 0.316 µM) 55% | viability, T/C (second compound 10 µM, first compound 1 µM) 31.9% | viability, T/C (second compound 10 µM, first compound 3.16 µM) 30.6% | viability, T/C (second compound 10 µM, first compound 10 µM) 29%
6.38: pIC50 (second compound 0.0316 µM)
6.33: pIC50 (second compound 1 µM)

CC(=O)OC12COC1CC(O)C1(C)C(=O)C(O)C3=C(C)C(OC(=O)C(O)C(NC(=O)OC(C)(C)C)c4ccccc4)CC(O)(C(OC(=O)c4ccccc4)C21)C3(C)C (centres undefined) + CCn1c(-c2cc(N3CCN(C)CC3)cnc2C(C)OC)c2c3cc(ccc31)-c1csc(n1)CC(NC(=O)C1CC1C)C(=O)N1CCCC(N1)C(=O)OCC(C)(C)C2
> 7.50: pIC50 (second compound 0.03 µM) | pIC50 (second compound 0.0949 µM) | pIC50 (second compound 0.3 µM)
6.16: pIC50 (second compound 0.000949 µM)
6.73: pIC50 (second compound 0.00949 µM)
inactive: viability, T/C (second compound 0.000949 µM, first compound 0.0316 µM) 101% | viability, T/C (second compound 0.000949 µM, first compound 0.1 µM) 78.6% | viability, T/C (second compound 0.000949 µM, first compound 0.316 µM) 66.3% | viability, T/C (second compound 0.000949 µM, first compound 1 µM) 39.4% | viability, T/C (second compound 0.000949 µM, first compound 3.16 µM) 38.4% | viability, T/C (second compound 0.000949 µM, first compound 10 µM) 34% | viability, T/C (second compound 0.003 µM, first compound 0.0316 µM) 95.8% | viability, T/C (second compound 0.003 µM, first compound 0.1 µM) 69.4% | viability, T/C (second compound 0.003 µM, first compound 0.316 µM) 46% | viability, T/C (second compound 0.003 µM, first compound 1 µM) 29.2% | viability, T/C (second compound 0.003 µM, first compound 3.16 µM) 32.5% | viability, T/C (second compound 0.003 µM, first compound 10 µM) 22.4% | viability, T/C (second compound 0.00949 µM, first compound 0.0316 µM) 64.7% | viability, T/C (second compound 0.00949 µM, first compound 0.1 µM) 70.1% | viability, T/C (second compound 0.00949 µM, first compound 0.316 µM) 35.6% | viability, T/C (second compound 0.00949 µM, first compound 1 µM) 24.6% | viability, T/C (second compound 0.00949 µM, first compound 3.16 µM) 23.5% | viability, T/C (second compound 0.00949 µM, first compound 10 µM) 19.2% | viability, T/C (second compound 0.03 µM, first compound 0.0316 µM) 44.9% | viability, T/C (second compound 0.03 µM, first compound 0.1 µM) 43.2% | viability, T/C (second compound 0.03 µM, first compound 0.316 µM) 20.9% | viability, T/C (second compound 0.03 µM, first compound 1 µM) 16.6% | viability, T/C (second compound 0.03 µM, first compound 3.16 µM) 15.8% | viability, T/C (second compound 0.03 µM, first compound 10 µM) 15.3% | viability, T/C (second compound 0.0949 µM, first compound 0.0316 µM) 17.3% | viability, T/C (second compound 0.0949 µM, first compound 0.1 µM) 14.5% | viability, T/C (second compound 0.0949 µM, first compound 0.316 µM) 12.4% | viability, T/C (second compound 0.0949 µM, first compound 1 µM) 12.5% | viability, T/C (second compound 0.0949 µM, first compound 3.16 µM) 12.5% | viability, T/C (second compound 0.0949 µM, first compound 10 µM) 10.7% | viability, T/C (second compound 0.3 µM, first compound 0.0316 µM) 11% | viability, T/C (second compound 0.3 µM, first compound 0.1 µM) 10.1% | viability, T/C (second compound 0.3 µM, first compound 0.316 µM) 11% | viability, T/C (second compound 0.3 µM, first compound 1 µM) 9.96% | viability, T/C (second compound 0.3 µM, first compound 3.16 µM) 10.9% | viability, T/C (second compound 0.3 µM, first compound 10 µM) 9.38%
6.60: pIC50 (second compound 0.003 µM)
